Source: patent US4889851A, “Benzothiadiazine compounds, and pharmaceutical composition comprising the same” (Fujisawa Pharmaceutical Co, Ltd., priority 1986, dated 1989)

System: Neonatal calvaria (bone resorption)
Experiment: Inhibition of hPTH-induced bone resorption in cultured neonatal rat calvaria (calcium accumulation in medium)
Type: cell-based, rat (Wistar)
Conditions: Test Compound 1×10^-5 M with hPTH(1-34) 1×10^-8 M; calvaria halves cultured 6 days at 37° C.; total calcium in medium by OCPC method
Experimental: Neonatal calvaria were dissected aseptically from 1-2 day old rat (Wistar), washed in Dulbecco's modified eagle's medium and divided along the sagittal suture. The calvaria halves were pooled and randomized in the different groups. The calvaria halves were cultured separately as free-floating bones in multi-well dishes containing a 2 ml of Dubecco's modified eagle's medium, with 10% heat-inactivated (56° C. for 1 hr) fetal calf serum. Treatment of hPTH(1-34)(1×10 ^-8 M) and the Test Compound (1×10 ^-5 M) was begun at zero time. All incubations were performed at 37° C., under an atmosphere of 95% air and 5% CO2 for 6 days. Bone resorption was determined by measuring the accumulation of calcium in the medium at 6 days. The concentration of total calcium in culture medium was measured by OCPC method with a spectrophotometer (Hitachi model U-3200, Tokyo, Japan).
As comparative data, similar tests were conducted using culture medium with hPTH (1×10^-8 M)only, and culture medium without both hPTH and Test Compound.
Test results were represented in terms of percentage of inhibition calculated by the following formula: [formula] CD the concentration of total calcium in culture medium treated with both hPTH and Test Compound
CO the concentration of total calcium in control culture medium without both hPTH and Test Compound
CP the concentration of total calcium in culture medium treated with hPTH only

Structure (SMILES) | Inhibition (%)
CC(C)Oc1ccc2c(c1)N(C)C(=O)N(c1ccc(Cl)cc1)S2(=O)=O [(a), 2-(4-Chlorophenyl)-6-isopropoxy-4-methyl-2H-1,2,4-benzothiadiazine-3(4H)-one 1,1-dioxide] | 79.7
CC(C)COc1ccc2c(c1)N(C)C(=O)N(c1ccc(Cl)cc1)S2(=O)=O [(b), 2-(4-Chlorophenyl)-4-methyl-6-(2-methylpropoxy)-2H-1,2,4-benzothiadiazine-3(4H)-one 1,1-dioxide] | 56.1
CN1C(=O)N(c2ccc(Cl)cc2)S(=O)(=O)c2ccc(OCC3CCCCC3)cc21 [(c), 2-(4-Chlorophenyl)-4-methyl-6-cyclohexylmethoxy-2H -1,2,4-benzothiadiazine-3(4H)-one 1,1-dioxide] | 62.5
CC(C)Oc1ccc2c(c1)N(C)C(=O)N(c1ccc(C(F)(F)F)cc1)S2(=O)=O [(d), 2-(4-Trifluoromethylphenyl)-4-methyl-6-isopropoxy-2H-1,2,4-benzothiadiazine-3(4H)-one 1,1-dioxide] | 52.9
CC(Oc1ccc2c(c1)N(C)C(=O)N(c1ccc(Cl)cc1)S2(=O)=O)C(=O)O (stereo not drawn) [(e), 2-(4-Chlorophenyl)-6-(l-carboxyethoxy)-4-methyl-2H-1,2,4-benzothiadiazine-3(4H)-one 1,1-dioxide] | 67.9
C[C@@H](Oc1ccc2c(c1)N(C)C(=O)N(c1ccc(Cl)cc1)S2(=O)=O)C(=O)O [(f), (1R)-(+)-2-(4-Chlorophenyl)-6-(l-carboxyethoxy)-4-methyl-2H-1,2,4-benzothiadiazine-3(4H)-one 1,1-dioxide] | 50.2
